One series deals with Dipeptidyl peptidase 4 (Homo sapiens, UniProt P27487).
In another series the test system is Liver microsomes. The experiment in a line: Intrinsic clearance in human liver microsomes. The class given is ADME, Microsome. For orientation: Liver microsomes are vesicles of endoplasmic reticulum, rich in cytochrome P450 enzymes.
The nature of series [1]: Apparent permeability from apical to basolateral side of MDCK cells by RRCK assay. It is filed as ADME, cell-based, Canis lupus familiaris. Particulars: dog.
The next series has as its target Dipeptidyl peptidase 2 (Homo sapiens, UniProt Q9UHL4). The experiment in a line: Inhibition of DPP2.
The target of the next series is Dipeptidyl peptidase 8 (Homo sapiens, UniProt Q6V1X1).
The nature of series [2]: Fraction unbound in rat plasma. The class given is ADME, cell-free.
Series [3] in a line: Clearance in rat plasma at 1 mg/kg, iv and 5 mg/kg, po. The class given is ADME, organism-based.
A short description of series [4]: Volume of distribution at steady state in rat at 1 mg/kg, iv. It is filed as ADME, organism-based. Set-up: dose 1 mg/kg, route intravenous. Particulars: in vivo, read-out: Vdss.
A short description of series [5]: Half life in rat at 1 mg/kg, iv and 5 mg/kg, po. The class given is ADME, organism-based. As to conditions: in vivo.
A further series deals with Rattus norvegicus. The series can be described thus: Ex vivo inhibition of DPP4 in rat at 5 mg/kg, po after 16 hrs. The class given is functional, organism-based. Details: dose 5 mg/kg.
A short description of series [6]: Oral bioavailability in rat at 5 mg/kg. As to conditions: in vivo. It is filed as ADME, organism-based.
Series [7] in a line: Clearance in dog. It is filed as ADME, organism-based, Canis lupus familiaris. As to conditions: in vivo.
For the next series, the target named is Cytochrome P450 2C9 (Homo sapiens, UniProt P11712). The experiment in a line: Inhibition of CYP2C9. It is filed as ADME.
Series [8] is described as follows: Half life in dog. It is filed as ADME, organism-based, Canis lupus familiaris. Particulars: in vivo.
The next series deals with Cytochrome P450 2D6 (Homo sapiens, UniProt P10635). The series can be described thus: Inhibition of CYP2D6. It is filed as ADME.
For the next series, the target named is Cytochrome P450 3A4 (Homo sapiens, UniProt P08684). The experiment in a line: Inhibition of CYP3A4. It is filed as ADME.
Series [9] in a line: Volume of distribution at steady state in dog. The class given is ADME, organism-based, Canis lupus familiaris. Particulars: in vivo, read-out: Vdss.
The target in another series is T1, Cytochrome P450 1A2 (Homo sapiens, UniProt P05177).
T1 sequence (P05177 whole entry): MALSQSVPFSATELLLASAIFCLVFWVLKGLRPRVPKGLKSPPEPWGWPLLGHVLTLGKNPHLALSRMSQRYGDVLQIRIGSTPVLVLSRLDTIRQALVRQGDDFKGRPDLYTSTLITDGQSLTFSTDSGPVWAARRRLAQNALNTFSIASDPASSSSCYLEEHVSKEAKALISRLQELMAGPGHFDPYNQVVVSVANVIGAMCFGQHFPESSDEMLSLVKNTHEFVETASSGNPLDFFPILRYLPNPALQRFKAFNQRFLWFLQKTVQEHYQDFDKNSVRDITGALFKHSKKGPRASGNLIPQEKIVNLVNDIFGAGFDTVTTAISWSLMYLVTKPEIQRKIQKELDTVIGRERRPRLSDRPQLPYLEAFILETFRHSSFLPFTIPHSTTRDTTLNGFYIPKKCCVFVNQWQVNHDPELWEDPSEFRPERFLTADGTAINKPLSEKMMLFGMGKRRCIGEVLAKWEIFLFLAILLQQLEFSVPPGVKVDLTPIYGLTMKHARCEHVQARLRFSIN
The experiment in a line: Inhibition of CYP1A2. The class given is ADME.

Series [10] can be described thus: Oral bioavailability in dog. It is filed as ADME, organism-based, Canis lupus familiaris. Particulars: in vivo.
A short description of series [11]: Fraction unbound in human plasma. It is filed as ADME, cell-free.

The values that follow come from ChEMBL document CHEMBL1681744, “1-((3S,4S)-4-amino-1-(4-substituted-1,3,5-triazin-2-yl) pyrrolidin-3-yl)-5,5-difluoropiperidin-2-one inhibitors of DPP-4 for the treatment of type 2 diabetes” (Bioorg Med Chem Lett, 2011).

Active and inactive are the calls of the source. No cut-off for these calls is given here. Where only a bound is given, the exact number is not on record here.

Chain of Dipeptidyl peptidase 8 (Q6V1X1 whole entry): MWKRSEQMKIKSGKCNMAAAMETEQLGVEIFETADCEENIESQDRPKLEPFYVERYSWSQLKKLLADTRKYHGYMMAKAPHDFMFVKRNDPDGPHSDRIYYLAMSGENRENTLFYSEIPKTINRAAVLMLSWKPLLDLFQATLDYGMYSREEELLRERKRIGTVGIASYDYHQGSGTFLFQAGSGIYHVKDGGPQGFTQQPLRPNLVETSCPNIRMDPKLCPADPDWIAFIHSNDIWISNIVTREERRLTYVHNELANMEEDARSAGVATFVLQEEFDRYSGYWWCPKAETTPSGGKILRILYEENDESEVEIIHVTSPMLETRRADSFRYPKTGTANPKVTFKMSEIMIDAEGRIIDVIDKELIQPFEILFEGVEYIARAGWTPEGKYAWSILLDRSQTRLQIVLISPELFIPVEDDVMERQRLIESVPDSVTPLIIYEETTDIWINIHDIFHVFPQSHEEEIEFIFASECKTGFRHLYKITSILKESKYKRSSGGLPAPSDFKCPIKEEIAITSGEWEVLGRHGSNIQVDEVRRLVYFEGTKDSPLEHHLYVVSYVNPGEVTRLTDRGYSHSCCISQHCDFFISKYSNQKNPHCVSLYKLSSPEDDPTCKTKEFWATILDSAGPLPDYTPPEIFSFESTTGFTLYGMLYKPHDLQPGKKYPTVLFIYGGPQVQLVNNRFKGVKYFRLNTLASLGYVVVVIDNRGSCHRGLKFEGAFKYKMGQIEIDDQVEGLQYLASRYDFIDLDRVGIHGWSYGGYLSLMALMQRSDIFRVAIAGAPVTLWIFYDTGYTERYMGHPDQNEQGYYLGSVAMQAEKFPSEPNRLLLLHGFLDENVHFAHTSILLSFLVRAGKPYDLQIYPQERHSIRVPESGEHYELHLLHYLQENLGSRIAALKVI
Chain of Dipeptidyl peptidase 4 (P27487 whole entry): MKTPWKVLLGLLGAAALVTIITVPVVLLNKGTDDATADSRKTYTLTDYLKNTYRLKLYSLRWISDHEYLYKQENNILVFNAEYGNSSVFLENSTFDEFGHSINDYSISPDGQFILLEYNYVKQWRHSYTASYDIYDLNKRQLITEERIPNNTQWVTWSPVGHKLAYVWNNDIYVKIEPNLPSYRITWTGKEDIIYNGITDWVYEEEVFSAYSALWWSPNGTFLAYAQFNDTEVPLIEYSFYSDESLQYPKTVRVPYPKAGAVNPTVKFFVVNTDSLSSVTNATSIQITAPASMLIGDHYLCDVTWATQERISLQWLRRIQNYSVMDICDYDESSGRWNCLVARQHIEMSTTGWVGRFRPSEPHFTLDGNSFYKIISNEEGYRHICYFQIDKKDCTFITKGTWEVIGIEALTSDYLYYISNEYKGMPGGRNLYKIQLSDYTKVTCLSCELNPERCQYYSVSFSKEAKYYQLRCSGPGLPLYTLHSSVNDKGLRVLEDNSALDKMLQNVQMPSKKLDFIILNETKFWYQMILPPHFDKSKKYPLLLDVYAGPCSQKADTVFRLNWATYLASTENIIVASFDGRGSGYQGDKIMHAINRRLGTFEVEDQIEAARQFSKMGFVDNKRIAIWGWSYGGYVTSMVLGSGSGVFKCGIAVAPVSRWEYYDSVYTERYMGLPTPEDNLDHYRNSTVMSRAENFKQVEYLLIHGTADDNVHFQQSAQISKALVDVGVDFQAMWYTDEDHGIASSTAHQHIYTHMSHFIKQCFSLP
Chain of Cytochrome P450 2D6 (P10635 whole entry): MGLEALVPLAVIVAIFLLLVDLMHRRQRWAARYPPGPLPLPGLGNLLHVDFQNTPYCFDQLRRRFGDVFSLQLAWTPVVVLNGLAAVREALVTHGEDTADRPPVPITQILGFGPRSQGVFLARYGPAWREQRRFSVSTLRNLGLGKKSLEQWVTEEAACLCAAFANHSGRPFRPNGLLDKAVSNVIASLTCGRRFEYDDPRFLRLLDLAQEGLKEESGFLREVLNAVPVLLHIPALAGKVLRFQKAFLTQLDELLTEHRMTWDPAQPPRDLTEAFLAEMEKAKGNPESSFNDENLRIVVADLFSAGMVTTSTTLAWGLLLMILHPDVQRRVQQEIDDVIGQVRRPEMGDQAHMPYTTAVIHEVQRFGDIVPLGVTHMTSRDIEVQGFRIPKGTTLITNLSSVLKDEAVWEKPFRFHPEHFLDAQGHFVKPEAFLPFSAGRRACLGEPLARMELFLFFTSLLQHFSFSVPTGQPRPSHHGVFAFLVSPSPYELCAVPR
Chain of Cytochrome P450 2C9 (P11712 whole entry): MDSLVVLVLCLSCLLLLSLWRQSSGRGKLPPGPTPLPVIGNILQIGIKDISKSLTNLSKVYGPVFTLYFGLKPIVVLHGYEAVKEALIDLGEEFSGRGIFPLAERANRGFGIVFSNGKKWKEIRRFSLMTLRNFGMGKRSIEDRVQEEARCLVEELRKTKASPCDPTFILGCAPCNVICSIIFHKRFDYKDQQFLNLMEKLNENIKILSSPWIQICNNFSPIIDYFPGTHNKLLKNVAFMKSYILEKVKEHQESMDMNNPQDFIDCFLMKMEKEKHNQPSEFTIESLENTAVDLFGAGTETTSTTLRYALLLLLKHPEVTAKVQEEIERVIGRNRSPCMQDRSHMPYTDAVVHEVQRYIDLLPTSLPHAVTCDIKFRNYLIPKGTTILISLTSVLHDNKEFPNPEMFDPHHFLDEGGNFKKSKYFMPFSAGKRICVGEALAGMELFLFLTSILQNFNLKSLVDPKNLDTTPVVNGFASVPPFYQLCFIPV
Chain of Cytochrome P450 3A4 (P08684 whole entry): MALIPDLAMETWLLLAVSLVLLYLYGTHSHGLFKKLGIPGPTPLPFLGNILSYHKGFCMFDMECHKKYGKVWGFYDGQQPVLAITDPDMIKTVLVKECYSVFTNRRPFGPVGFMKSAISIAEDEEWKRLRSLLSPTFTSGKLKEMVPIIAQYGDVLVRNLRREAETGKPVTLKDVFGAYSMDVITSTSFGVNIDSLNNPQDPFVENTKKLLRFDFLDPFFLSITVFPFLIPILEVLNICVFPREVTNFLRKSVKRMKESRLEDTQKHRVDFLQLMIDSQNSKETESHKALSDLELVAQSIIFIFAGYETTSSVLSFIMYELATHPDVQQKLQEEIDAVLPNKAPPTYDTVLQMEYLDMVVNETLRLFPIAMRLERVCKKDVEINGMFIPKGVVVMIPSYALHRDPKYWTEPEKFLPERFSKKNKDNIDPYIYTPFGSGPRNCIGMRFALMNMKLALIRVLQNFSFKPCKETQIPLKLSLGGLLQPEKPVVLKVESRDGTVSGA

Broadly, the IC50 is the concentration needed to halve the response being measured. `N[C@H]1CN(c2cc(-c3cc(F)c(F)cc3F)ncn2)C[C@@H]1N1CCCC1=O` came in with an IC50 against Dipeptidyl peptidase 4 of 488 nM. In the series on Liver microsomes, the clearance is < 7 µL/min/mg.
For the compound `N[C@H]1CN(c2cc(NC3CC3)ncn2)C[C@@H]1N1CCCCC1=O`, the clearance in the series with Liver microsomes was < 7 µL/min/mg.
The Papp A→B is the apparent permeability from the apical to the basolateral side of a cell layer. For `N[C@H]1CN(c2ncnc(-c3ccccc3)n2)C[C@@H]1N1CCCCC1=O`, the Papp A→B in series [1] was determined as 35.7 ×10⁻⁶ cm/s. In addition, the IC50 against Dipeptidyl peptidase 2 was > 30000 nM.
As for `N[C@H]1CN(c2cc(NC3CC3)ncn2)C[C@@H]1c1ccccc1`, the IC50 against Dipeptidyl peptidase 4 was determined as 19 nM. The compound also yielded a clearance in the series on Liver microsomes of 38 µL/min/mg.
`N[C@H]1CN(c2cc(-c3cc(F)c(F)cc3F)ncn2)C[C@@H]1N1CCCCC1=O`: it took 47 nM to reach half-maximal inhibition on Dipeptidyl peptidase 4 (IC50). The clearance with Liver microsomes is < 7.2 µL/min/mg.
As to `N[C@H]1CN(c2cc(N3CCc4nocc4C3)ncn2)C[C@@H]1N1CCCC1=O`, the clearance in the series with Liver microsomes is < 7 µL/min/mg.
The compound `N[C@H]1CN(c2cc(N3CCc4nocc4C3)ncn2)C[C@@H]1c1ccccc1` had an IC50 at Dipeptidyl peptidase 4 of 1.6 nM. For the same compound, the clearance with Liver microsomes came out at 56 µL/min/mg.
The like results for `N[C@H]1CN(c2cc(N3CCc4nocc4C3)ncn2)C[C@@H]1N1CCCCC1=O` were, in that order, 12 nM and < 7.5 µL/min/mg.
Usually fraction unbound stands for free concentration divided by total concentration. A high value points to weak binding. In general, half-life refers to the time in which the quantity being followed falls by half. As for `N[C@H]1CN(c2ncnc(N3CCC(F)(F)C3)n2)C[C@@H]1N1CCCCC1=O`, in [1], the Papp A→B was determined as 3.8 ×10⁻⁶ cm/s. Besides, the IC50 against Dipeptidyl peptidase 8 was > 30000 nM. The same compound registered a fraction unbound in [2] of 0.86. In series [3], this compound showed a clearance of 36.8 mL/min/kg. Also, the Vd in [4] was 4.7 L/kg. In series [5], this compound gave a half-life of 5 h. For the same compound, the inhibition entry in the series on Rattus norvegicus was “Active”. In series [6], the bioavailability was 52%.
Regarding `Cc1nc(N2C[C@H](N)[C@@H](N3CC(F)(F)CCC3=O)C2)cc(N2CCC(F)(F)C2)n1`, the values for the IC50 against Dipeptidyl peptidase 4 and against Dipeptidyl peptidase 8 were 13 nM and > 30000 nM, respectively. The Papp A→B in series [1] was determined as 3.9 ×10⁻⁶ cm/s.
`N[C@H]1CN(c2cc(NC3CC3)ncn2)C[C@@H]1N1CCCC1=O`: the clearance in the series with Liver microsomes was < 7 µL/min/mg.
As to `COc1ccc(-c2cc(N3C[C@H](N)[C@@H](N4CCCCC4=O)C3)ncn2)cn1`, in [1], the Papp A→B was found to be 2.7 ×10⁻⁶ cm/s. For the same compound, the IC50 at Dipeptidyl peptidase 2 is > 30000 nM.
For the compound `N[C@H]1CN(c2cc(N3CCC(F)(F)C3)ncn2)C[C@@H]1N1CCCCC1=O`, the IC50 on Dipeptidyl peptidase 4 is 26 nM; against Dipeptidyl peptidase 8, > 30000 nM. In addition, the Papp A→B in series [1] is 1.8 ×10⁻⁶ cm/s. Also, the fraction unbound in series [2] was 0.75. The clearance in [3] was 60.1 mL/min/kg. In addition, the Vd in [4] was 2.3 L/kg. Also, the half-life in series [5] was 0.78 h. Besides, the inhibition entry in the series on Rattus norvegicus is “Active”. The bioavailability in [6] was 21%.
For the compound `N[C@H]1CN(c2ncnc(N3CCC(F)(F)C3)n2)C[C@@H]1N1CC(F)(F)CCC1=O`, in series [1], the Papp A→B is 5 ×10⁻⁶ cm/s. Besides, the clearance was 7.2 mL/min/kg in series [7] and 46 mL/min/kg in series [3]. Besides, the IC50 on Dipeptidyl peptidase 8 was > 30000 nM; on Cytochrome P450 2C9 it was > 15000 nM; at Cytochrome P450 2D6 it was > 15000 nM; at Cytochrome P450 3A4, > 15000 nM; on Cytochrome P450 1A2, > 15000 nM. The half-life in series [8] is 5.9 h; in series [5], 3.6 h. In addition, the Vd came out at 8.4 L/kg in [4] and 1.9 L/kg in [9]. The values for the bioavailability in series [10] and in [6] were 150% and 90%, respectively. Moreover, in series [11], the fraction unbound worked out at 0.83.
For the compound `N[C@H]1CN(c2cc(-c3cc(F)cc(F)c3F)ncn2)C[C@@H]1c1ccccc1`, the clearance with Liver microsomes was 85 µL/min/mg.
With `N[C@H]1CN(c2cc(N3CCC(F)(F)C3)ncn2)C[C@@H]1N1CC(F)(F)CCC1=O`, the Papp A→B in [1] was 3.4 ×10⁻⁶ cm/s. The IC50 at Dipeptidyl peptidase 8 was > 30000 nM. The compound further gave a fraction unbound in series [2] of 0.82. The compound further had a clearance in series [3] of 84 mL/min/kg. The Vd in series [4] was found to be 5.7 L/kg. The compound further showed a half-life in series [5] of 2.4 h. Besides, in series [6], the bioavailability is 50%.
